Test results reported in ChEMBL document CHEMBL5226287, “Small organic molecules targeting the energy metabolism of Mycobacterium tuberculosis” (Eur J Med Chem, 2021).
Starred links: 1 amine or outer side, 2 acyl side, 3 side chain; linkers in the order of their positions; H or OH if unused. Non-standard residues stand in square brackets, D forms with d. Residues, ends and D or L forms follow the SMILES beside them. ξ: configuration not given here. *: point of attachment. X1 = CCC(=O)C[C@@H](O)C[C@@H](C)C[C@H](N[*:1])C(=O)[*:2]; Alaψ(CH2NMeCH2CH2OH) = C[C@@H](CN(C)CCO)N*; Decanoyl(2R-Me) = CCCCCCCC[C@@H](C)C(=O)*; Ile(3ξ) = CCC(C)[C@H](N)C(=O)O; ξβ3hP = O=C(O)CC1CCCN1; Aib = CC(C)(N)C(=O)O

Tests used:
[1] = Inhibition of Mycobacterium smegmatis cytochrome bd oxidase with ATP overexpression inverted membrane vesicles; type: cell membranes, Mycobacterium tuberculosis, Membrane vesicle
[2] = Inhibition of Mycobacterium smegmatis cytochrome bd oxidase with ATP synthase overexpression inverted membrane vesicles; type: cell membranes, Mycobacterium tuberculosis, Membrane vesicle
[3] = Inhibition of Mycobacterium bovis BCG cytochrome bd oxidase with ATP synthase overexpression inverted membrane vesicles; type: cell membranes, Mycobacterium tuberculosis variant bovis, Membrane vesicle

SMILES	IC50 [1]	IC50 [2]	IC50 [3]
O=C(CNC1CCCCC1)N(c1ccccc1)c1ccccc1	10.4 µM	–	–
CCCCCCCC[C@@H](C)C(=O)N1CCCC1CC(=O)N[C@@H](C[C@H](C)C[C@H](O)CC(=O)CC)C(=O)NC(C)(C)C(=O)NC(C)(C)C(=O)N[C@H](C(=O)N[C@H](C(=O)NC(C)(C)C(=O)NC(C)(C)C(=O)N[C@@H](C)CN(C)CCO)C(C)C)C(C)CC (stereo partly drawn) ({Decanoyl(2R-Me)}-[ξβ3hP][X1][Aib][Aib][Ile(3ξ)]V[Aib][Aib]-{Alaψ(CH2NMeCH2CH2OH)})	–	0.5 µM	5.2 µM
O=C(CNC1CCCC1)N(c1ccccc1)c1ccccc1	14 µM	–	–
